Reference: ChEMBL document CHEMBL4017462, “Antiplasmodial β-triketones from the flowers of the Australian tree Angophora woodsiana” (Bioorg Med Chem Lett, 2017)
pIC50: −log10 of the molar value. Blank lines part the entries; values can stand above or below the compound they belong to.

Experiments:
[1] = system: Plasmodium falciparum; assay: Antiplasmodial activity against chloroquine-sensitive Plasmodium falciparum 3D7 measured after 72 hrs by DAPI staining based high throughput screening assay; type: functional; details: 3D7, 72 h
[2] = system: HEK293; assay: Growth inhibition of HEK293 cells; type: cell-based; details: Homo sapiens
[3] = system: Plasmodium falciparum; assay: Antiplasmodial activity against chloroquine-resistant Plasmodium falciparum Dd2 measured after 72 hrs by DAPI staining based high throughput screening assay; type: functional; details: Dd2, 72 h
[4] = Selectivity index, ratio of IC50 for HEK293 cells to IC50 for chloroquine-resistant Plasmodium falciparum Dd2; type: toxicity; details: human; read-out: Ratio IC50
[5] = system: Plasmodium falciparum; assay: Antiplasmodial activity against chloroquine-resistant Plasmodium falciparum Dd2; type: functional
[6] = system: Plasmodium falciparum; assay: Antiplasmodial activity against chloroquine-sensitive Plasmodium falciparum 3D7; type: functional
[7] = Growth inhibition of HEK293 cells at 120 uM relative to control; type: cell-based; details: human, read-out: GI
[8] = Growth inhibition of HEK293 cells at 100 uM relative to control; type: cell-based; details: human, read-out: GI
[9] = Growth inhibition of HEK293 cells at 20 uM relative to control; type: cell-based; details: human, read-out: GI
[10] = Growth inhibition of HEK293 cells at 40 uM relative to control; type: cell-based; details: human, read-out: GI
[11] = system: Plasmodium falciparum; assay: Antiplasmodial activity against chloroquine-resistant Plasmodium falciparum Dd2 at 40 uM measured after 72 hrs by DAPI staining based high throughput screening assay relative to control; type: functional

pIC50 [1]: 5.17
Compound: CC(C)C[C@H]1C[C@@]2(CC[C@H]3C[C@@H]2C3(C)C)OC2=C1C(=O)C(C)(C)C(=O)C2(C)C

Compound: CC(C)C[C@@H]1OC12C(=O)C(C)(C)C(=O)C(C)(C)C2=O
pIC50 [1]: 5.52 | pIC50 [2]: 4.80 | pIC50 [3]: 5.60 | selectivity ratio [4]: < 10

pIC50 [1]: 4.95
Compound: C=C1CC[C@H]2[C@H](CC(C)C)C3=C(O[C@]2(C)CC[C@@H]2[C@@H]1CC2(C)C)C(C)(C)C(=O)C(C)(C)C3=O

Compound: CC(C)CC(=O)c1c(O)c2c(c3c1O[C@]1(C(C)C)OC4=C(C(=O)C(C)(C)C(=O)C4(C)C)[C@H]31)OC1=C(C(=O)C(C)(C)C(=O)C1(C)C)[C@@H]2CC(C)C
pIC50 [5]: 5.83 | pIC50 [6]: 6.00

pIC50 [1]: 4.97
Compound: Cc1c2c(c(O)c3c1OC1=C(C(=O)C(C)(C)C(=O)C1(C)C)[C@@H]3CC(C)C)C(=O)C[C@@H](c1ccccc1)O2

pIC50 [1]: 4.85
Compound: CC(C)[C@]12OC3=C(C(=O)C(C)(C)C(=O)C3(C)C)[C@H]1C1=C(O2)C(C)(C)C(=O)C(C)(C)C1=O

Compound: Cc1c(O)c(C(=O)CCc2ccccc2)c2c(c1O)[C@@H]1C3=C(O[C@]1(C(C)C)O2)C(C)(C)C(=O)C(C)(C)C3=O
pIC50 [5]: 6.36 | pIC50 [1]: 5.97 | inhibition at 120 µM [7]: 85% | pIC50 [6]: 6.54

pIC50 [1]: 5.05
Compound: C=C1CC[C@H]2[C@@H](CC(C)C)C3=C(O[C@]2(C)CC[C@@H]2[C@@H]1CC2(C)C)C(C)(C)C(=O)C(C)(C)C3=O

pIC50 [1]: 4.57
Compound: CC(C)C[C@H]1C2=C(O[C@@]3(C)C=C4[C@@H](C[C@@H]13)[C@@H](C)CC[C@@H]4C(C)C)C(C)(C)C(=O)C(C)(C)C2=O
inhibition at 100 µM [8]: 68%

pIC50 [1]: 4.98
Compound: CC(C)CC(=O)c1c(O)cc(O)c2c1O[C@@]1(C(C)C)OC3=C(C(=O)C(C)(C)C(=O)C3(C)C)[C@@H]21
inhibition at 100 µM [8]: 59%

Compound: CC(C)CC(C1=C(O)C(C)(C)C(=O)C(C)(C)C1=O)C1=C(O)C(C)(C)C(=O)C(C)(C)C1=O
pIC50 [5]: 5.06 | pIC50 [1]: 6.36 | inhibition at 120 µM [7]: 42% | pIC50 [6]: 5.28

Compound: CC(C)CC(=O)c1c(O)cc2c(c1O)[C@@H](CC(C)C)C1=C(O2)C(C)(C)C(=O)C(C)(C)C1=O
pIC50 [1]: 5.74 | pIC50 [2]: 4.94 | pIC50 [3]: 5.40 | selectivity ratio [4]: < 10

Compound: C[C@H]1[C@H](OC(=O)CCC(=O)O)O[C@@H]2O[C@@]3(C)CC[C@H]4[C@H](C)CC[C@@H]1[C@@]24OO3 [ARTESUNATE]
inhibition at 20 µM [9]: 94% | pIC50 [1]: 9.00

Compound: COc1ccc(C[C@H](N)C(=O)N[C@H]2[C@@H](O)[C@H](n3cnc4c(N(C)C)ncnc43)O[C@@H]2CO)cc1 [PUROMYCIN]
pIC50 [2]: 6.40 | pIC50 [3]: 7.21

Compound: CCc1nc(N)nc(N)c1-c1ccc(Cl)cc1 [PYRIMETHAMINE]
inhibition at 40 µM [10]: 62% | pIC50 [1]: 8.10 | Activity [11]: 62%

Compound: COc1ccc2nc3cc(Cl)ccc3c(Nc3cc(CN4CCCC4)c(O)c(CN4CCCC4)c3)c2n1 [PYRONARIDINE]
pIC50 [1]: 7.92 | pIC50 [2]: 5.28 | pIC50 [3]: 7.74
